{
  "source": "patent US5965598A",
  "about": "“Zinc-phthalocyanines and corresponding conjugates, their preparation and use in photodynamic therapy and as diagnostic agents” (priority 1997, dated 1999)",
  "key": {"Branhamella catarrhalis": {"tested_on": "Branhamella catarrhalis", "assay": "Photoinactivation of microorganisms: Branhamella catarrhalis", "assay_type": "cell-based", "conditions": "footnote", "description": "(§1) The experimental protocol was the following:\n(§2) Incubation in dark at 37° C. (5 min to 1 hour)."}, "E. Coli (strain 04)": {"tested_on": "E. Coli (strain 04)", "assay": "Photoinactivation of microorganisms: E. coli", "assay_type": "cell-based, Escherichia coli (strain 04)", "conditions": "footnote below the P. aeruginosa / E. coli table", "description": "as §1, §2"}, "[1]": {"tested_on": "Staphylococcus aureus (ATCC 6538P)", "assay": "Photoinactivation of microorganisms: Staphylococcus aureus", "assay_type": "cell-based", "conditions": "1 μM; 15 mW/cm2, 30 min", "description": "as §1, §2"}},
  "data": [
    {"smiles": "[Zn+2].c1ccc2c(c1)-c1nc-2nc2[n-]c(nc3nc([n-]c4nc(n1)-c1ccccc1-4)-c1ccccc1-3)c1ccccc21", "note": "[ZnPC, ZnPhthalocyanine]", "values": [
      {"measurement": "Photoinactivation activity (in words)", "setting": "Branhamella catarrhalis", "value": "not active"},
      {"measurement": "Photoinactivation activity (in words)", "setting": "E. Coli (strain 04)", "value": "not active"},
      {"measurement": "Cell mortality", "setting": "[1]", "value": 99.99}
    ]}
  ]
}
